Experiments:
ErbB2 or EGFR = target: T1, ErbB2 or EGFR; test: ErbB enzyme substrate phosphorylation assay (HTRF), Method B (enzyme pre-incubated with compound 1 hour); type: biochemical; conditions: Table 1, enzyme Method B: enzyme mix incubated with compound 1 hour at 20° C., reaction started with substrate mix; class over ErbB2 or EGFR
T1 construct: enzymes purified from a baculovirus expression system
Procedure: Compounds of the present invention were tested for EGFR, ErbB-2, and ErbB-4 protein tyrosine kinase inhibitory activity in substrate phosphorylation assays using enzymes purified from a baculovirus expression system. Reagent production was conducted essentially as described in Brignola, P. S., et al, (2002) J. Biol. Chem. 277(2): 1576-1585.
The method measures the ability of the isolated enzyme to catalyse the transfer of the gamma-phosphate from ATP onto the tyrosine residue of a biotinylated synthetic peptide referenced “Peptide C” in Brignola, P. S., et al, (2002) J. Biol. Chem. 277(2):1576-1585. The extent of tyrosine phosphorylation was measured using an anti-phosphotyrosine antibody, and quantified by homogenous time-resolved fluorescence (HTRF).
Reactions were performed in black 384-well polystyrene flat-bottom plates in a final volume of 20 μl. Assays were performed by adding 10 μl of each of the following solutions, substrate Mix and enzyme mix: The Substrate mix contained 100 mM 3-[N-morpholino]propanesulfonic acid (MOPS) (pH 7.5), 2 mM MnCl2, 20 μM ATP, 0.01% Tween-20, 0.1 mg/mL (BSA), 0.8 uM peptide substrate, and 1 mM dithiothreitol. The enzyme mix contained 100 mM MOPS (pH7.5); 0.01% Tween-20; 0.1 mg/mL BSA, and either 0.8 nM EGFR, 10 nM ErbB2, or 1 nM ErbB4
During the course of these studies, two separate methods have been used to measure the potency of compounds. In Method A, the substrate mix was added to the compound plates first, then the reaction was started by adding the enzyme mix. In Method B, the enzyme mix was added to the compound plates and the plates were incubated at 20° C. for 1 hour. The reactions were then started by adding the substrate mix.
After initiating the reaction with either method describe above, the reactions were allowed to proceed for 90 minutes at 20° C. The reactions were then terminated by the addition of 20 μl 100 mM EDTA to each well. 40 μl/well of HTRF detection mix were added to the assay plates. The final concentrations of the detection reagents were: 100 mM HEPES (pH7.5), 0.1 mg/mL BSA, 15 nM streptavidin-labeled allophycocyanin (PerkinElmer), and 1 nM europium-labeled anti-phosphotyrosine antibody (PerkinElmer). Assay plates were left unsealed and were counted in a Wallac Multilabel Counter 1420 (PerkinElmer).
Compounds under analysis were dissolved in Me2SO to 1.0 mM and serially diluted 1 to 3 with Me2SO through twelve dilutions. 1 μl of each concentration was transferred to the corresponding well of an assay plate. This creates a final compound concentration range from 0.00027 to 47.6 μM.
The data for dose responses were plotted as % Inhibition calculated with the data reduction formula 100*(1−(U1−C2)/(C1−C2)) versus concentration of compound where U is the unknown value, C1 is the average control value obtained for 4.76% DMSO, and C2 is the average control value obtained for 0.035 M EDTA. Data were fitted with a curve described by: y=((Vmax*x)/(K+x))+Y2 where Vmax is the upper asymptote, Y2 is the Y intercept, and K is the IC50. The results for each compound were recorded as pIC50s, calculated as follows: pIC50=−Log 10(K)

Colo205 tumor cell lines = test: Celltiter Glo growth inhibition assay (cellular Method B); type: cell-based; conditions: Homo sapiens, COLO 205, 72 h, Table 3, Method B Celltiter Glo, 3 days
Procedure: (§1) Human breast tumor cells (BT474) were cultured in RPMI, (Invitrogen, 22400) containing 10% fetal bovine serum (FBS). Human head and neck tumor cells (HN5) were cultured in low glucose DMEM (Invitrogen, 12320) containing 10% FBS. Human colon tumor cells (Colo205) were cultured in DMEM (Invitrogen, 10564) containing 10% FBS. All cell lines were maintained at 37° C. in a humidified 5% CO2, 95% air incubator. Cells were harvested using trypsin/EDTA, counted using a haemocytometer, and plated in 30 microliters of the appropriate media described above, at the following densities, in a half area, black-walled, 96-well tissue culture plate (Corning 3882): BT474 3,000 cells/well, HN5 500 cells/well and Colo205 cells, 3,000 cells/well. The next day, compounds were diluted in DMEM containing 100 mg/ml gentamicin, from 10 mM stock solutions in DMSO. 30 microliters/well of these dilutions were added to the 30 microliters/well of media currently on the cell plates. Medium containing 0.6% DMSO was added to control wells. The final concentration of DMSO in all wells was 0.3%. Cells were incubated at 37° C., 5% CO2 for 3 days. Cell biomass was estimated using Celltiter Glo (Promega G7571). Briefly, plates were removed from the incubator and allowed to equilibrate to rt for 30 minutes. 60 microliters of Celltiter Glo reagent were added to each well of the treated cells and plates were shaken on an orbital plate shaker for 2 min. Plates were incubated without shaking for 30 more min and read in a luminometer with an integration time of 0.5 seconds per well. Percent inhibition of cell growth was calculated relative to vehicle treated control wells. Concentration of compound that inhibits 50% of vehicle control cell growth (IC50) was interpolated using nonlinear regression (Levenberg-Marquardt) and the equation, y=Vmax*(1−(x/(K+x)))+Y2, where “K” was equal to the IC50.

[1] = system: BT474 and HN5 tumor cell lines; test: as above; type: cell-based; conditions: Homo sapiens, BT-474, 72 h; Table 2, Method B Celltiter Glo, 3 days; class over BT474 and HN5;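 note: class counts the more potent of the two cell lines (BT474 or HN5)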
Procedure: as §1

| Compound | Activity (Method) (ErbB2 or EGFR) | IC50 (Colo205 tumor cell lines) [nM] | IC50 [1] [nM] |
| --- | --- | --- | --- |
| CN(C)Cc1cccc(Nc2nccc(-c3c(-c4cccc(NC(=O)Cc5cccs5)c4)nn4ccccc34)n2)c1 [Example 7, N-(3-{3-[2-({3-[(Dimethylamino)methyl]phenyl}amino)-4-pyrimidinyl]pyrazolo[1,5-a]pyridin-2-yl}phenyl)-2-(2-thienyl)acetamide] | +++ (B) (at least one pIC50 measurement of greater than 7 against either ErbB2 or EGFR) | 100 to 1000 | 100 to 1000 |
| CN1CCc2ccc(Nc3nccc(-c4c(-c5cccc(NC(=O)Cc6cccs6)c5)nn5cc(F)ccc45)n3)cc2C1 [Example 35, N-[3-(6-fluoro-3-{2-[(2-methyl-1,2,3,4-tetrahydro-7-isoquinolinyl)amino]-4-pyrimidinyl}pyrazolo[1,5-a]pyridin-2-yl)phenyl]-2-(2-thienyl)acetamide] | ++ (B) (at least one pIC50 measurement greater than 6 against either ErbB2 or EGFR but no measurement greater than pIC50 of 7) | > 1000 | 100 to 1000 |
| Cc1ccc(-c2nn3ccccc3c2-c2ccnc(Nc3cccc(CN4CCCC4)c3)n2)cc1NC(=O)Cc1cccs1 [Example 56, N-{2-Methyl-5-[3-(2-{[3-(1-pyrrolidinylmethyl)phenyl]amino}-4-pyrimidinyl)pyrazolo[1,5-a]pyridin-2-yl]phenyl}-2-(2-thienyl)acetamide] | ++ (B) (at least one pIC50 measurement greater than 6 against either ErbB2 or EGFR but no measurement greater than pIC50 of 7) | > 1000 | > 1000 |
| O=C(Cc1ccsc1)Nc1cccc(-c2nn3ccccc3c2-c2ccnc(Nc3cccc(-c4cnco4)c3)n2)c1 [Example 17, N-{3-[3-(2-{[3-(1,3-Oxazol-5-yl)phenyl]amino}-4-pyrimidinyl)pyrazolo[1,5-a]pyridin-2-yl]phenyl}-2-(3-thienyl)acetamide] | +++ (B) (at least one pIC50 measurement of greater than 7 against either ErbB2 or EGFR) | 100 to 1000 | 100 to 1000 |
| CN1CCc2ccc(Nc3nccc(-c4c(-c5cccc(NC(=O)Cc6cccs6)c5)nn5cccc(F)c45)n3)cc2C1 [Example 30, N-[3-(4-fluoro-3-{2-[(2-methyl-1,2,3,4-tetrahydro-7-isoquinolinyl)amino]-4-pyrimidinyl}pyrazolo[1,5-a]pyridin-2-yl)phenyl]-2-(2-thienyl)acetamide] | ++ (B) (at least one pIC50 measurement greater than 6 against either ErbB2 or EGFR but no measurement greater than pIC50 of 7) | > 1000 | > 1000 |
| CN(C)Cc1cccc(Nc2nccc(-c3c(-c4ccc(F)c(NC(=O)Cc5cccs5)c4)nn4ccccc34)n2)c1 [Example 36, N-(5-{3-[2-({3-[(dimethylamino)methyl]phenyl}amino)-4-pyrimidinyl]pyrazolo[1,5-a]pyridin-2-yl}-2-fluorophenyl)-2-(2-thienyl)acetamide] | ++ (B) (at least one pIC50 measurement greater than 6 against either ErbB2 or EGFR but no measurement greater than pIC50 of 7) | 100 to 1000 | 100 to 1000 |
| COc1ccc(-c2nn3ccccc3c2-c2ccnc(Nc3ccc4c(c3)CC(N(C)C)C4)n2)cc1NC(=O)Cc1cccs1 (stereo not drawn) [Example 48, N-{5-[3-(2-{[2-(Dimethylamino)-2,3-dihydro-1H-inden-5-yl]amino}pyrimidin-4-yl)pyrazolo[1,5-a]pyridin-2-yl]-2-methoxyphenyl}-2-(2-thienyl)acetamide] | + (B) (no pIC50 measurement greater than 6 against either ErbB2 or EGFR) | 100 to 1000 | 100 to 1000 |
| Cc1ccc(-c2nn3ccccc3c2-c2ccnc(Nc3cc(OCCN(C)C)ccc3C)n2)cc1NC(=O)Cc1cccs1 [Example 57, N-[5-(3-{2-[(5-{[2-(Dimethylamino)ethyl]oxy}-2-methylphenyl)amino]-4-pyrimidinyl}pyrazolo[1,5-a]pyridin-2-yl)-2-methylphenyl]-2-(2-thienyl)acetamide] | ++ (B) (at least one pIC50 measurement greater than 6 against either ErbB2 or EGFR but no measurement greater than pIC50 of 7) | > 1000 | > 1000 |
| Cc1ccc(OCCN(C)C)cc1Nc1nccc(-c2c(-c3ccc(F)c(NC(=O)Cc4cccs4)c3)nn3ccccc23)n1 [Example 62, N-[5-(3-{2-[(5-{[2-(Dimethylamino)ethyl]oxy}-2-methylphenyl)amino]-4-pyrimidinyl}pyrazolo[1,5-a]pyridin-2-yl)-2-fluorophenyl]-2-(2-thienyl)acetamide] | + (B) (no pIC50 measurement greater than 6 against either ErbB2 or EGFR) | 100 to 1000 | > 1000 |
| Cc1ccc(-c2nn3ccccc3c2-c2ccnc(Nc3ccc4c(c3)CN(C)CC4)n2)cc1NC(=O)Cc1cccs1 [Example 59, N-[2-Methyl-5-(3-{2-[(2-methyl-1,2,3,4-tetrahydro-7-isoquinolinyl)amino]-4-pyrimidinyl}pyrazolo[1,5-a]pyridin-2-yl)phenyl]-2-(2-thienyl)acetamide] | ++ (B) (at least one pIC50 measurement greater than 6 against either ErbB2 or EGFR but no measurement greater than pIC50 of 7) | > 1000 | 100 to 1000 |
| COc1ccc(Nc2nccc(-c3c(-c4cccc(NC(=O)Cc5cccs5)c4)nn4ccccc34)n2)cc1N1CCN(CCS(C)(=O)=O)CC1 [Example 47, N-[3-(3-{2-[(4-(Methyloxy)-3-{4-[2-(methylsulfonyl)ethyl]-1-piperazinyl}phenyl)amino]-4-pyrimidinyl}pyrazolo[1,5-a]pyridin-2-yl)phenyl]-2-(2-thienyl)acetamide] | +++ (B) (at least one pIC50 measurement of greater than 7 against either ErbB2 or EGFR) | < 100 | 100 to 1000 |
| NCc1cccc(Nc2nccc(-c3c(-c4cccc(NC(=O)Cc5cccs5)c4)nn4ccccc34)n2)c1 [Example 42, N-{3-[3-(2-{[3-(Aminomethyl)phenyl]amino}-4-pyrimidinyl)pyrazolo[1,5-a]pyridin-2-yl]phenyl}-2-(2-thienyl)acetamide] | +++ (B) (at least one pIC50 measurement of greater than 7 against either ErbB2 or EGFR) | > 1000 | 100 to 1000 |

Source: US7807673B2, “2-pyrimidinyl pyrazolopyridine ErbB kinase inhibitors” (GlaxoSmithKline LLC, priority 2005, dated 2010)
